# Assay results published in patent US20230348394A1, “COMPOSITIONS AND METHODS FOR TREATING MUSCULAR DYSTROPHIES” (The Regents of the University of California, priority 2020, published 2023).
# Structures can show the parent of a compound that is named as a salt.
# Test system: SSPN transcript
# Test: SSPN gene expression after systemic (subcutaneous) treatment of mdx mice
# Format: in vivo
# Conditions: 20 mg/kg daily subcutaneous, 13 days, quadriceps
# Method: For the preliminary safety assessment of OT-9, we performed IP injections in 6 month old C57/B16 males. The mice were injected with 100 μl of vehicle (5% DMSO (Sigma), 95% PBS), 100 μl of 30 mg/kg of OT-9 in vehicle, or 100 μl of 50 mg/kg of OT-9 in vehicle (n=1 mouse per treatment). […] For assessment of activity, 20-weeks old male mdx littermates were injected in both tibialis anterior muscles with vehicle (5% DMSO, 95% PBS) or 86 μg of OT-9. Two mice were injected in both TAs with vehicle and three mice were injected in both TAs with 200 of OT-9 (9.4 mM solution containing 86 μg of OT-9). After 4 hours, the muscles were harvested and processed for gene expression analysis. For assessment of activity of OT-9m after local administration, 19-22-weeks old mdx males were injected in both tibialis anterior muscles with vehicle (5% DMSO, 95% PBS) or 3 mg/kg and 10 mg/kg of OT-9m. After 4 hours, the muscles were harvested and processed for gene expression analysis. […]
# Followed by local administration, we evaluated ability of OT-9m to enhance SSPN expression in mdx mice after systemic treatment. […] We determined that mice overexpressing sarcospan by 1.5-fold were not rescued, while mice overexpressing sarcospan by 3-fold were rescued.
row,Structure (SMILES),increase of SSPN transcript [fold]
1,"COc1ccc2[nH]c(=O)c(C(=O)Nc3ccc(C(=O)N4CCCOCC4)cc3)cc2c1 [OT-9m, N-(4-(1,4-oxazepane-4-carbonyl)phenyl)-6-methoxy-2-oxo-1,2-dihydroquinoline-3-carboxamide]",2

# Test system: SSPN-HiBiT protein (sarcospan)
# Test: C2C12 SSPN-HiBiT protein reporter assay (12-well and 384-well format)
# Format: cell-based, murine
# Conditions: SSPN-HiBiT C2C12 myotubes, 5 μM
# Method: C2C12 SSPN-HiBiT myoblasts were seeded at 25,000 cells per well in 2 ml of growth media in 12 well-plates and incubated for 3 days. Upon reaching confluency, the growth media was replaced with 2 ml of differentiation media. At day 2 of differentiation, the media on the cells was replaced with 2 ml of differentiation media containing compounds at a final concentration of 5.5 μM in 0.06% DMSO. For vehicle control-treated cells, 0.06% DMSO was added to the cells. After 48 hrs the cells were washed with PBS and frozen for 2-24 hrs. The plates containing cells were thawed on ice and 100 μl of ice-cold modified RIPA buffer containing 1% Triton X-100, 0.05% DOC, 0.05% SDS, and Halt Protease Inhibitor was added to each well. Cells were scratched, transferred into 1.5 ml tubes, and centrifuged for 20 min at 16,000×g at 4° C. The cell lysates were transferred into new tubes. DC assay was performed on cell lysates to determine protein concentration. White walled, white bottom 384-well microplates (Greiner) were prefilled with 15 μl of PBS and 15 μl of cell lysates were added to each well in triplicate. Then 30 μl Nano-Glo HiBiT Lytic Detection working solution was added to each well and incubated for 30 min at RT with shaking. The luminescence was measured on the EnVision plate reader and the signal was normalized to protein concentration and signal from vehicle-treated controls.
# C2C12 SSPN-HiBiT myoblasts were seeded at 500 cells per well in 50 μl of growth media in 384-well white, clear bottom microplates (Greiner) and incubated for 3 days. Upon reaching confluency, the growth media was replaced with 50 μl of differentiation media consisting of phenol-red free DMEM with 2% horse serum (Sigma-Aldrich) using an EL406 combination washer dispenser (Biotek). At day 2 of differentiation, the media on the cells was aspirated, left with a residual volume of 10 μl, and replaced with 30 μl of fresh differentiation media. 0.5 μl of small molecule in DMSO or DMSO alone (for vehicle and positive control wells) were added to each well using a Biomek Fx (Beckman). To ensure proper mixing of the DMSO, 50 μl of additional differentiation media was added to all wells except the positive control treated wells. The final concentration of compound in each treated well was 0.5-10 μM in 0.55% DMSO and 0.55% DMSO only for vehicle. After 48 hrs of incubation, the plate was washed with phenol red-free DMEM, aspirated, and left with a residual volume of 5 μl using EL406 combination washer dispenser. After the wash, 25 μl of differentiation media containing 12 μM DRAQ5 nuclear stain was added to reach a final concentration 10 μM in each well and incubated for 15 min at 37° C. with 5% CO2. The cells were imaged using ImageXpress Micro Confocal High Content Imaging System (Molecular Devices). The nuclei count of imaged cells were determined using a custom module analysis in MetaXpress Analysis software (Molecular Devices). After imaging and analysis, the plate was aspirated, left with a residual volume of 5 μl and placed at −80° C. for 2-24 hrs. The plate was thawed at RT and 25 μl of PBS was added, followed by 30 μl of Nano-Glo HiBiT Lytic Detection working solution prepared according manufacturer recommendations. Luminescence was measured using the EnVision plate reader and the signal of each well was normalized to nuclei count and signal from vehicle-treated controls.
# In order to effectively test new analogues, we created method for detecting SSPN protein in cells, e.g., SSPN-HiBiT. SSPN-HiBiT based on a murine C2C12 cell line expressing endogenous SSPN protein with an N-term fusion protein called the HiBiT, an 11 amino acid subunit of a luciferase enzyme (FIG. 10a). The SSPN-HiBiT protein is quantified through addition of substrate and a larger subunit of the luciferase enzyme to catalyze the formation of luminescent signal. […]
row,Structure (SMILES),increase in SSPN-HiBiT levels [fold]
1,"O=C1Nc2ccc(I)cc2/C1=C/c1cc(Br)c(O)c(Br)c1 [GW5074, reference compound]",1.35

# Same assay, conditions: Table 1; *p<0.05
row,Structure (SMILES),"SSPN-HiBiT, fold change over vehicle"
1,CCN(CC)c1ccc2cc(C(=O)Nc3ccc(C(=O)N4CCCCCC4)cc3)cnc2c1,1.62* fold change over vehicle
2,CCN(CC)c1ccc2cc(C(=O)Nc3ccc(C(=O)N4CCCOCC4)cc3)cnc2c1,1.3* fold change over vehicle
3,CCN(CC)c1ccc2cc(C(=O)Nc3nnc(C(=O)N4CCOCC4)[nH]3)cnc2c1,1.34* fold change over vehicle
4,CCN(CC)c1ccc2cc(C(=O)Nc3ccc(C(=O)N4CCN(C)CC4)cc3)cnc2c1,1.47* fold change over vehicle
5,CCN(CC)C(=O)c1ccc(NC(=O)c2cnc3cc(N(CC)CC)ccc3c2)cc1,1.75* fold change over vehicle
6,COc1ccc2nc(C)c(C(=O)Nc3ccc(C(=O)N4CCCOCC4)cc3)cc2c1,1.22* fold change over vehicle
7,COc1ccc2[nH]c(=O)c(C(=O)Nc3ccc(C(=O)N4CCCCCC4)cc3)cc2c1,1.03 fold change over vehicle
8,CCN(CC)C(=O)c1ccc(NC(=O)c2cc3cc(OC)ccc3[nH]c2=O)cc1,1.51* fold change over vehicle
9,COc1ccc2c(c1)CC(C(=O)Nc1ccc(C(=O)N3CCN(C)CC3)cc1)C(=O)N2 (stereo not drawn),1.46* fold change over vehicle
10,"Nc1ccc2ncc(C(=O)Nc3ccc(C(=O)N4CCCOCC4)cc3)cc2c1 [N-(4-(1,4-oxazepane-4-carbonyl)phenyl)-6-aminoquinoline-3-carboxamide hydrochloride]",1.09* fold change over vehicle
11,COc1ccc2nc(C)c(C(=O)Nc3ccc(C(=O)N4CCCCCC4)cc3)cc2c1 [N-(4-(azepane-1-carbonyl)phenyl)-6-methoxy-2-methylquinoline-3-carboxamide],1.4* fold change over vehicle
12,CCN(CC)C(=O)c1ccc(NC(=O)c2cc3ccccc3nc2C)cc1 [N-(4-(diethylcarbamoyl)phenyl)-2-methylquinoline-3-carboxamide],1.08* fold change over vehicle
13,"CCN(CC)C(=O)c1ccc(NC(=O)c2c(C)c3ccccc3[nH]c2=O)cc1 [N-(4-(diethylcarbamoyl)phenyl)-4-methyl-2-oxo-1,2-dihydroquinoline-3-carboxamide]",1.21* fold change over vehicle
14,"CCN(CC)C(=O)c1ccc(NC(=O)c2cc3ccc(F)cc3[nH]c2=O)cc1 [N-(4-(diethylcarbamoyl)phenyl)-7-fluoro-2-oxo-1,2-dihydroquinoline-3-carboxamide]",1.45* fold change over vehicle
15,"COc1ccc2[nH]c(=O)c(C(=O)Nc3ccc(C(=O)N4CCCOCC4)cc3)cc2c1 [OT-9m, N-(4-(1,4-oxazepane-4-carbonyl)phenyl)-6-methoxy-2-oxo-1,2-dihydroquinoline-3-carboxamide]",2.4* fold change over vehicle

# Same assay, conditions: Table 2; *p<0.05
row,Structure (SMILES),"SSPN-HiBiT, fold change over vehicle"
1,Cc1cc2cc(C#N)c(OCC(=O)c3ccc(F)cc3F)nc2cc1C,1.22* fold change over vehicle
2,Cc1cc2cc(C#N)c(S(=O)(=O)CC(=O)c3ccc(F)cc3)nc2cc1C,1.23* fold change over vehicle
3,COc1ccc(C(=O)COc2nc3cc(C)c(C)cc3cc2C#N)cc1,1.27* fold change over vehicle
4,Cc1cc2cc(C#N)c(OCC(=O)c3ccc(O)cc3)nc2cc1C,1.21 fold change over vehicle
5,"Cc1cc(C)c(C#N)c(OCC(=O)c2ccc(N(C)C)cc2)n1 [2-(2-(4-(dimethylamino)phenyl)-2-oxoethoxy)-4,6-dimethylnicotinonitrile]",1.09* fold change over vehicle
6,"Cc1cc2cc(C#N)c(OCC(=O)c3ccc(N(C)C)cc3)nc2cc1C [2-(2-(4-(dimethylamino)phenyl)-2-oxoethoxy)-6,7-dimethylquinoline-3-carbonitrile]",1.04* fold change over vehicle
7,"Cc1cc(C)c2nc(OCC(=O)c3ccc(N(C)C)cc3)c(C#N)cc2c1 [2-(2-(4-(dimethylamino)phenyl)-2-oxoethoxy)-6,8-dimethylquinoline-3-carbonitrile]",1.3* fold change over vehicle
8,"Cc1cc2cc(C#N)c(SCC(=O)c3ccc(F)cc3)nc2cc1C [2-((2-(4-fluorophenyl)-2-oxoethyl)thio)-6,7-dimethylquinoline-3-carbonitrile]",1.48* fold change over vehicle

# Test system: SSPN gene expression
# Test: SSPN gene expression in tibialis anterior after intramuscular injection in mdx mice
# Format: in vivo
# Conditions: 3 mg/kg and 10 mg/kg intramuscular, 4 hours
# Method: For the preliminary safety assessment of OT-9, we performed IP injections in 6 month old C57/B16 males. The mice were injected with 100 μl of vehicle (5% DMSO (Sigma), 95% PBS), 100 μl of 30 mg/kg of OT-9 in vehicle, or 100 μl of 50 mg/kg of OT-9 in vehicle (n=1 mouse per treatment). […] For assessment of activity, 20-weeks old male mdx littermates were injected in both tibialis anterior muscles with vehicle (5% DMSO, 95% PBS) or 86 μg of OT-9. Two mice were injected in both TAs with vehicle and three mice were injected in both TAs with 200 of OT-9 (9.4 mM solution containing 86 μg of OT-9). After 4 hours, the muscles were harvested and processed for gene expression analysis. For assessment of activity of OT-9m after local administration, 19-22-weeks old mdx males were injected in both tibialis anterior muscles with vehicle (5% DMSO, 95% PBS) or 3 mg/kg and 10 mg/kg of OT-9m. After 4 hours, the muscles were harvested and processed for gene expression analysis. For assessment of activity of OT-9m after systemic administration, 13-weeks old mdx males were injected subcutaneously with vehicle (4% PEG-200 in hydroxypropyl-b-cyclodextrin) or 20 mg/kg/day of OT-9m. After 13 days of treatment, the muscles were harvested and processed for gene expression analysis.
# After the preliminary safety evaluation, we tested the ability of OT-9 to increase SSPN gene expression in vivo. […] Five 20-weeks old male mdx littermates were subjected to intramuscular injections in both tibialis anterior (TA) muscles. Two mice were injected in both TAs with vehicle and […] were injected with 3 mg/kg of OT-9 (molar equivalent of 9.4 mM used in the safety assessment). After 4 hours of treatment, the TAs were harvested and processed for gene expression analysis. […] After determination that OT-9 is capable of increasing SSPN gene expression in vivo, we evaluated one of its derivatives, OT-9m, for its ability to increase SSPN expression in mdx mice. OT-9m was chosen based on its improved activity in vitro compared to OT-9 (compare, Table 1, entries 1 & 14). To assess activity OT-9m in vivo after local administration, eleven 19-22 weeks old male mdx mice were subjected to intramuscular injections in both tibialis anterior (TA) muscles. Four mice were injected in both TAs with vehicle, three mice were injected with 3 mg/kg of OT-9m and four mice were injected with 10 mg/kg of OT-9m. After 4 hours of treatment, the TAs were harvested and processed for gene expression analysis.
row,Structure (SMILES),SSPN gene expression in tibialis anterior
1,"COc1ccc2[nH]c(=O)c(C(=O)Nc3ccc(C(=O)N4CCCOCC4)cc3)cc2c1 [OT-9m, N-(4-(1,4-oxazepane-4-carbonyl)phenyl)-6-methoxy-2-oxo-1,2-dihydroquinoline-3-carboxamide]",increased SSPN gene expression

# Same assay, conditions: OT-9m 3 mg/kg and 10 mg/kg intramuscular, both TA, 4 hours
row,Structure (SMILES),adverse effects after local injection
1,"COc1ccc2[nH]c(=O)c(C(=O)Nc3ccc(C(=O)N4CCCOCC4)cc3)cc2c1 [OT-9m, N-(4-(1,4-oxazepane-4-carbonyl)phenyl)-6-methoxy-2-oxo-1,2-dihydroquinoline-3-carboxamide]",No adverse effects
